# Legend:
# [1] = tested on: HepG2 cells derived from a human liver carcinoma; test: Growth inhibition of HepG2 cells, sulforhodamin-B-method, six days; format: cell-based; conditions: six days of substance incubation
# Method: HepG2 cells derived from a human liver carcinoma plated at a density of 20,000 cells/ml in 12-well plastic dishes. Cultivation occurred in Richters IMEM-ZO nutrient medium with 5% foetal calf serum (FCS) in a tissue culture incubator with a gas mixture of 5% CO2 and 95% air at a temperature of 37° C. One day after plating, the culture medium was aspirated from the cells and replaced by fresh medium which contained the respective concentrations of the test substances. For the individual concentrations and the controls without test substances, three-fold batches were done for each. Three days after the beginning of treatment, the medium was again renewed with the test compounds. After six days of substance incubation, the test was ended and the protein amount in the individual wells was determined with the sulforhodamin-B-method (according to P. Skehan et al.: New Colorimetric Cytotoxicity Assay for Anticancer-Drug Screening. J. Natl. Cancer Inst. 82: 1107–1112, 1990). The IC50-values (defined as that concentration in which the cell growth was inhibited by 50%) was taken from the dose-response curves and given as a comparative measurement for the activity of the test compounds.
# [2] = tested on: lymphocytes from the spleen of a Swiss mouse; test: Immunosuppressing activity on freshly isolated lymphocytes, vital cells by flow-through cytometer after 2 days; format: cell-based; conditions: vital cells after 2 days
# From the text: Many anti-tumor agents have not only a cytotoxic effect on tumor cells, but also on the blood cell system. This leads to a weakening of the immune defence, which can, in turn, be specifically employed to suppress the rejection reaction after an organ transplantation for example. Also use of the main compounds, optionally in combination with other immunological diseases (for example, psoriasis or autoimmune diseases) seems likely. In order to test the possibility for a therapeutic use in illnesses of this type, the substance activity was tested on freshly isolated lymphocytes as follows:
# The spleen of a Swiss mouse served as a lymphocyte source. The lymphocyte population was isolated from the spleen cell suspension over a ficoll gradient and taken up in IMEM-ZO culture medium with 0.1% dextran 70,000 and 2% foetal calf serum. […] Subsequently, 10,000 cells per each sample were measured on a flow-through cytometer and the percentage amount of vital cells in the population was determined. By means of the dose-response curves, IC50-values were calculated which were also employed in the following Tables for the characterization of the individual substances: […]
substance,measurement,setting,value
"N-[6-(2,5-dioxo-3,4-diphenyl-2,5-dihydropyrrol-1-yl)-hexyl])-3-pyridin-3-yl-acrylamide [substance 58]",IC50,[1],500 nM
same,IC50,[2],60 nM
